Blank lines part the entries; values can stand above or below the compound they belong to.
Assays:
[1] = tested on: MCF-7TN-R cells; assay: Clonogenic survival assay; type: cell-based, Human; details: Homo sapiens, 240 h
Description: (§1) Human cancer cell lines derived from breast, MCF-7, endocrine-resistant MDA-MB-231, and chemoresistant MCF-7TN-R were cultured in 75 cm^2 culture flasks in DMEM (Invitrogen, Co.) supplemented with 10% FBS (Life Technologies, Inc., Gaithersburg, Md.), basic minimum MEM essential (50×, Invitrogen Co.) and MEM non-essential (100×, Invitrogen, Co.) amino acids, sodium pyruvate (100× Invitrogen Co.), antimicotic-antibiotic (10,000 U/mL penicillin G sodium; 10,000 μg/mL streptomycin sulphate; 25 μg/mL amphotericin B as Fungizone®), and human recombinant insulin (4 mg/mL Invitrogen Co). Culture flasks were maintained in a tissue culture incubator in a humidified atmosphere of 5% CO2 and 95% air at 37° C.
(§2) MCF-7, MDA-MB-231, or MCF-7TN-R cells were plated in 6-well plates at 1000 cells per well. Twenty-four hours later, cells were treated with varying concentrations of the compound and then monitored microscopically for colony growth. Ten days later the cells were fixed with 3% glutaraldehyde. Following fixation for 15 min, the plates were washed and stained with a 0.4% solution of crystal violet in 20% methanol for 30 min, washed with PBS, and air-dried. Colonies of 30 cells were counted as positive. Results are normalized to percent clonogenic survival from untreated control cells. Statistical analysis of IC50 values were calculated from concentration-response curves using GraphPad Prism 5.0 (Graphpad Software, San Diego, Calif.), using with the equation: Y=Bottom+(Top−bottom)/1+10 Log EC50−X.
(§3) Compounds II-1, II-2, II-3, II-4, II-5, and II-6 were compared for their inhibitory effect on breast cancer clonogenic survival. Cells were treated with varying concentration of compound, ranging from 0.1 μM-20 μM for 10 days. […] At endpoint, cell colonies were fixed, stained and recorded as percent vehicle control.

[2] = tested on: MDA-MB-231 cells; assay: Clonogenic survival assay; type: cell-based, Human; details: Homo sapiens, MDA-MB-231, 240 h
Description: as §1, §2, §3

[3] = tested on: MCF-7 cells; assay: Clonogenic survival assay; type: cell-based, Human
Description: as §1, §2, §3

[4] = tested on: MCF-7TN-R cells; assay: Viability assay using MTT; type: cell-based; details: Homo sapiens, 24 h, compounds 0.1 to 100 μM, unit inferred, read-out: MCF-7TN-R (IC50), Viability Assays
Description: as §1
(§4) The effect of ceramide and compounds on cell growth was determined using MTT viability assays. MCF-7, MDA-MB-231, or MCF-7TN-R cells were plated at […] cells per well in a 96-well plate in phenol-free DMEM supplemented with 5% FBS and allowed to adhere overnight. Cells were then treated with compounds I-1, I-2, I-3, or I-4 (ranging from 0.1 to 100 μM) for 24 h. Following that treatment, 20 μL of MTT (5 mg/ml) reagent was added to each well prior to incubation for 4 hr. Cells were then lysed with 20% SDS in 50% dimethylformamide. The pH and absorbances were read on an EL×808 Microtek plate reader (Winooski, Vt.) at 550 nm, with a reference wavelength of 630 nm.
(§5) Statistical analysis of IC50 values were calculated from concentration-response curves using GraphPad Prism 5.0 (Graphpad Software, San Diego, Calif.), using with the equation: Y=Bottom+(Top−bottom)/1+10 Log EC50−X assuming a standard slope, where the response goes from 10% to 90% of maximal as X increases over two log units. Differences in IC50 were compared using Student's unpaired t-test with p<0.05 as the limit of statistical significance. Experiments comparing multiple concentrations to the control were tested with one-way ANOVA with Bonferroni post-test to compare individual concentrations. All statistical analysis were done using GraphPad Prism 5.0. […].

[5] = tested on: MDA-MB-231 cells; assay: Viability assay using MTT; type: cell-based; details: Homo sapiens, 24 h, compounds 0.1 to 100 μM, unit inferred, read-out: MDA-MB-231 (IC50), Viability Assays
Description: as §1, §4, §5

[6] = tested on: MCF-7 cells; assay: Viability assay using MTT; type: cell-based; details: Homo sapiens, MCF7, 24 h, compounds 0.1 to 100 μM, unit inferred, read-out: MCF-7 (IC50), Viability Assays
Description: as §1, §4, §5

[7] = Log K (structure-activity parameter); type: physicochemical
[8] = tested on: MCF-7TN-R cells; assay: Proliferation assay; type: cell-based; details: Homo sapiens; Table 3; read-out: IC50 (μM), anti-proliferative in MCF-7TN-R cells
Description: The ability of compound II-3 to block proliferation as an anti-survival mechanism in addition to apoptosis was determined by measuring anti-proliferative effects.
Nineteen compounds were synthesized using fifteen benzaldehydes as starting material. […] These were tested as potential anti-proliferative agents in MCF-7TN-R cells, and the structure-activity relationships were studied using several parameters. […] In compounds containing a methyl group, a significant increase of the PAC (C) in o-substituted compound was detected, which may account for the increased anti-proliferation activity. Ortho-substituted analogs with electron withdrawing groups by induction can have beneficial effects, and PAC (C) can be a useful predictor of the structural property of the molecule.

[9] = Table 2, 0.1 μM-20 μM for 10 days, read-out: MCF-7-TNR (IC50), clonogenic survival
[10] = Table 2, 0.1 μM-20 μM for 10 days, read-out: MDA-MB-231 (IC50), clonogenic survival
[11] = Homo sapiens, MCF7, 240 h, Table 2, 0.1 μM-20 μM for 10 days, read-out: MCF-7 (IC50), clonogenic survival
[12] = Table 1B, 10 days, read-out: MCF-7TN-R (IC50), Clonogenic Survival Assays
[13] = Table 1B, 10 days, read-out: MDA-MB-231 (IC50), Clonogenic Survival Assays
[14] = Homo sapiens, MCF7, 240 h, Table 1B, 10 days, read-out: MCF-7 (IC50), Clonogenic Survival Assays

SMILES: CCCCCCCCCCCCCCNC(=O)[C@H](CO)NCc1ccccc1 [II-2, (S)-2-(benzylamino)-3-hydroxy-N-tetradecylpropanamide]
- IC50 [1, 9]: 15.2 µM
- IC50 [2, 10]: 10.5 µM
- IC50 [3, 11]: 4.97 µM
- IC50 ([3]; Table 2, 0.1 μM-20 μM for 10 days, read-out: MCF-7 (IC50), clonogenic survival): 5 µM

- IC50 [4]: 3 µM
- IC50 [5]: 3.7 µM
- IC50 [6]: 6.3 µM
SMILES: CCCCCCCCCCCCC/C=C/[C@@H](O)[C@H](CO)NCc1ccccc1 [Compound I-2, (2S,3R,E)-2-(benzylamino)octadec-4-ene-1,3-diol]
- IC50 [1, 12]: 0.6 µM
- IC50 [2, 13]: 1.1 µM
- IC50 [3, 14]: 1.5 µM

- Log K [7]: 1.12
- IC50 [8]: 10.3 µM
SMILES: CCCCCCCCCCCCCCNC(=O)[C@H](CO)N=Cc1ccccc1Cl [II-15, (S)-2-(2-chlorobenzylideneamino)-3-hydroxy-N-tetradecylpropanamide]

- IC50 [4]: 2.4 µM
- IC50 [5]: 5.4 µM
- IC50 [6]: 22.6 µM
SMILES: CCCCCCCCCCCCC/C=C/[C@@H](O)[C@H](CO)NC(=O)C1CCCCC1 [Compound I-1, N-((2S,3R,E)-1,3-dihydroxyoctadec-4-en-2-yl)cyclohexanecarboxamide]
- IC50 [1, 12]: 0.7 µM
- IC50 [2, 13]: 1.6 µM
- IC50 [3, 14]: 1.5 µM

- Log K [7]: 0.89
- IC50 [8]: 12.5 µM
SMILES: CCCCCCCCCCCCCCNC(=O)[C@H](CO)N=Cc1ccccc1OC [II-18, (S)-2-(2-methoxybenzylideneamino)-3-hydroxy-N-tetradecylpropanamide]

SMILES: CCCCCCCCCCCCCCNC(=O)[C@H](CO)NC(=O)C(C)(C)C [II-4, (S)-3-hydroxy-2-pivalamido-N-tetradecylpropanamide]
- IC50 [1, 9]: 11.1 µM
- IC50 [2, 10]: 6.1 µM
- IC50 [3, 11]: 6.7 µM

- Log K [7]: 0.88
- IC50 [8]: 21.7 µM
SMILES: CCCCCCCCCCCCCCNC(=O)[C@H](CO)N=Cc1ccccc1[N+](=O)[O-] [II-9, (S)-2-(2-nitrobenzylideneamino)-3-hydroxy-N-tetradecylpropanamide]

SMILES: CCCCCCCCCCCCCCNC(=O)[C@H](CO)NC(C)=O [II-6, (S)-2-acetamido-3-hydroxy-N-tetradecylpropanamide]
- IC50 [1, 9]: 52.7 µM
- IC50 [2, 10]: 75.1 µM
- IC50 [3, 11]: 44.7 µM

- Log K [7]: 0.91
- IC50 [8]: 28.1 µM
SMILES: CCCCCCCCCCCCCCNC(=O)[C@H](CO)N=Cc1ccc(OC)cc1 [II-16, (S)-2-(4-methoxybenzylideneamino)-3-hydroxy-N-tetradecylpropanamide]

- IC50 [4]: 3.6 µM
- IC50 [5]: 4.8 µM
- IC50 [6]: 9 µM
SMILES: CCCCCCCCCCCCC/C=C/[C@@H](O)[C@H](CO)/N=C/c1ccccc1 [Compound I-3, (2S,3R,E)-2-((E)-benzylideneamino)octadec-4-ene-1,3-diol]
- IC50 [1, 12]: 0.1 µM
- IC50 [2, 13]: 1.4 µM
- IC50 [3, 14]: 1.7 µM

- Log K [7]: 0.92
- IC50 [8]: 31.2 µM
SMILES: CCCCCCCCCCCCCCNC(=O)[C@H](CO)N=Cc1cccc(OC)c1 [II-17, (S)-2-(3-methoxybenzylideneamino)-3-hydroxy-N-tetradecylpropanamide]

- Log K [7]: 1.09
- IC50 [8]: 102 µM
SMILES: CCCCCCCCCCCCCCNC(=O)[C@H](CO)N=Cc1ccc(C)cc1 [II-10, (S)-2-(4-methylbenzylideneamino)-3-hydroxy-N-tetradecylpropanamide]

- Log K [7]: 0.73
- IC50 [8]: 19.3 µM
SMILES: CCCCCCCCCCCCCCNC(=O)[C@H](CO)N=Cc1ccc(O)cc1 [II-19, (S)-2-(4-hydroxybenzylideneamino)-3-hydroxy-N-tetradecylpropanamide]

- Log K [7]: 1.08
- IC50 [8]: 24.1 µM
SMILES: CCCCCCCCCCCCCCNC(=O)[C@H](CO)N=Cc1cccc(Cl)c1 [II-14, (S)-2-(3-chlorobenzylideneamino)-3-hydroxy-N-tetradecylpropanamide]

- Log K [7]: 1.09
- IC50 [8]: 27.5 µM
SMILES: CCCCCCCCCCCCCCNC(=O)[C@H](CO)N=Cc1ccc(Cl)cc1 [II-13, (S)-2-(4-chlorobenzylideneamino)-3-hydroxy-N-tetradecylpropanamide]

- Log K [7]: 1.09
- IC50 [8]: 82.9 µM
SMILES: CCCCCCCCCCCCCCNC(=O)[C@H](CO)N=Cc1cccc(C)c1 [II-11, (S)-2-(3-methylbenzylideneamino)-3-hydroxy-N-tetradecylpropanamide]

SMILES: CCCCCCCCCCCCCCNC(=O)[C@H](CO)NC(=O)c1cc(OC)cc(OC)c1 [II-5, (S)—N-(3-hydroxy-1-oxo-1-(tetradecylamino)propan-2-yl)-3,5-dimethoxybenzamide]
- IC50 [1, 9]: 15 µM
- IC50 [2, 10]: 6.6 µM
- IC50 [3, 11]: 11.2 µM

- Log K [7]: 0.86
- IC50 [8]: 216 µM
SMILES: CCCCCCCCCCCCCCNC(=O)[C@H](CO)N=Cc1ccc([N+](=O)[O-])cc1 [II-7, (S)-2-(4-nitrobenzylideneamino)-3-hydroxy-N-tetradecylpropanamide]

- Log K [7]: 0.89
- IC50 [8]: 19 µM
SMILES: CCCCCCCCCCCCCCNC(=O)[C@H](CO)N=Cc1ccccc1O [II-21, (S)-2-(2-hydroxybenzylideneamino)-3-hydroxy-N-tetradecylpropanamide]

- IC50 [4]: 4.2 µM
- IC50 [5]: 8 µM
- IC50 [6]: 13.5 µM
SMILES: CCCCCCCCCCCCC/C=C/[C@@H](O)[C@H](CO)NC(=O)C(C)(C)C [Compound I-4, N-((2S,3R,E)-1,3-dihydroxyoctadec-4-en-2-yl)pivalamide]
- IC50 [1, 12]: 0.6 µM
- IC50 [2, 13]: 0.5 µM
- IC50 [3, 14]: 1.5 µM

- Log K [7]: 0.76
- IC50 [8]: 32.6 µM
SMILES: CCCCCCCCCCCCCCNC(=O)[C@H](CO)N=Cc1cccc(O)c1 [II-20, (S)-2-(3-hydroxybenzylideneamino)-3-hydroxy-N-tetradecylpropanamide]

- Log K [7]: 0.86
- IC50 [8]: 104 µM
SMILES: CCCCCCCCCCCCCCNC(=O)[C@H](CO)N=Cc1cccc([N+](=O)[O-])c1 [II-8, (S)-2-(3-nitrobenzylideneamino)-3-hydroxy-N-tetradecylpropanamide]

SMILES: CCCCCCCCCCCCCCNC(=O)[C@H](CO)NC(=O)C1CCCCC1 [II-1, (S)—N-(3-hydroxy-1-oxo-1-(tetradecylamino)propan-2-yl)cyclohexanecarboxamide]
- IC50 [1, 9]: 23.5 µM
- IC50 [2, 10]: 11.5 µM
- IC50 [3, 11]: 7.2 µM

- Log K [7]: 1.09
- IC50 [8]: 87.7 µM
SMILES: CCCCCCCCCCCCCCNC(=O)[C@H](CO)N=Cc1ccccc1C [II-12, (S)-2-(2-methylbenzylideneamino)-3-hydroxy-N-tetradecylpropanamide]
